According to US7294485B2, “Rat calcium channel subunits and related probes, cell lines and methods” (Neuromed Pharmaceuticals Ltd., priority 2003, dated 2007):

Legend:
[1] = test system: α2δ-3 expression in cultured rat atrial myocytes; conditions: Chu 2003; cited from earlier work
[2] = biological target: α2δ-2 subunit (Homo sapiens, UniProt Q9NY47); conditions: Marais et al. 2001; cited from earlier work
[3] = biological target: α2δ-3 subunit (Homo sapiens, UniProt Q8IZS8); conditions: Marais et al. 2001; cited from earlier work
[4] = test system: rat α1B+β1b Ca2+ channel (N-type calcium channel); assay: Whole-cell patch clamp current density of rat α1B+β1b channels with coexpressed α2δ-2 in transfected HEK 293 cells; format: cell-based
Method: Human embryonic kidney cells, HEK 293 (ATCC# CRL 1573) or HEK 293 tsA 201, were grown in standard DMEM medium supplemented with 4 mM glutamine and 10% fetal bovine serum. The rat α2δ-2 construct was transfected into HEK 293 or HEK 293 tsA 201 cells with equimolar concentration of the subunits α1B (N-type calcium channel) and β1b, using lipofectamine (Gibco/Invitrogen) according to the manufacturer's instructions. pEGFP was included in the transfected cDNA at 3-5 times less the molar concentration to detect transfected cells and to determine the efficiency of transfection. Transfected cells were incubated at 37° C., 5% CO2, for 6-24 hours and then placed at 29° C., 5% CO2.
After an incubation period of 24 to 72 hours, the culture medium was removed and replaced with an external recording solution containing (in mM) 5 BaCl, 129 CsCl, 1 MgCl2, 10 HEPES, 10 glucose, pH 7.4 with CsOH. Whole-cell patch clamp recordings were made with an Axopatch 200B amplifier (Axon Instruments, USA). […] Signals were acquired at 2.02 kHz and analyzed offline using pClamp 8.2 (Axon Instruments, USA) and Origin (OriginLab Corporation, USA) software. […]
Mean current density was recorded for 4 cells transfected with rat α1B+β1b only and for 7 cells that were also cotransfected with rat brain α2δ-2 subunit. […]

Sequence of α2δ-2 subunit (Q9NY47 19-1150): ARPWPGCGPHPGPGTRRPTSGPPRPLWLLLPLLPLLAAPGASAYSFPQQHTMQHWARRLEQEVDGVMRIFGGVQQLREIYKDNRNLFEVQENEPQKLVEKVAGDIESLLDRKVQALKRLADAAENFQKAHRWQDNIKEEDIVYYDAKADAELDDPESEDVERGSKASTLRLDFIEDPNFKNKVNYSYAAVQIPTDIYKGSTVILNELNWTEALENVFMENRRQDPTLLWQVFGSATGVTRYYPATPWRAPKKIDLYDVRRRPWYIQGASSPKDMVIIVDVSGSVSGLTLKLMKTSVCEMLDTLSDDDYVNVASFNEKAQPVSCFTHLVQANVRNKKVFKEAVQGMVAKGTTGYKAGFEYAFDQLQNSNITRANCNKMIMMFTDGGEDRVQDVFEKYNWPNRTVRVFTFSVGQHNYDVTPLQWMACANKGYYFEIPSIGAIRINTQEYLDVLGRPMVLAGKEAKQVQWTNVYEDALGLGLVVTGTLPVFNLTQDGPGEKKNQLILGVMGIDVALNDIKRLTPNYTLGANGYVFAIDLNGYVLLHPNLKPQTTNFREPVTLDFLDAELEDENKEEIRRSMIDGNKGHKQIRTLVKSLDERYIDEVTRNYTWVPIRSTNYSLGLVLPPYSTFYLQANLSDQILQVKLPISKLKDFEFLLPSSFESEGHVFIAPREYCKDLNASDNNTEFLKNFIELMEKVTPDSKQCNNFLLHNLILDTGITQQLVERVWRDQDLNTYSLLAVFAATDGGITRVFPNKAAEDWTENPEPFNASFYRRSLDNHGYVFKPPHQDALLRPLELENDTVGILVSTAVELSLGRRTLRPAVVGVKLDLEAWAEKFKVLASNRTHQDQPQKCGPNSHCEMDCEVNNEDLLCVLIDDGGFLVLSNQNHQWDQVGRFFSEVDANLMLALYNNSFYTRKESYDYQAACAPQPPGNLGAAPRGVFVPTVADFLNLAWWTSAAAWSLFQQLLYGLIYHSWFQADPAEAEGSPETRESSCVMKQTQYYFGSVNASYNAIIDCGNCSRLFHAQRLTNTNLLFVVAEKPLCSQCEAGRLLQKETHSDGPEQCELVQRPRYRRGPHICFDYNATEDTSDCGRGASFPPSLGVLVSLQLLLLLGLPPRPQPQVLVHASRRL
Sequence of α2δ-3 subunit (Q8IZS8 29-1091): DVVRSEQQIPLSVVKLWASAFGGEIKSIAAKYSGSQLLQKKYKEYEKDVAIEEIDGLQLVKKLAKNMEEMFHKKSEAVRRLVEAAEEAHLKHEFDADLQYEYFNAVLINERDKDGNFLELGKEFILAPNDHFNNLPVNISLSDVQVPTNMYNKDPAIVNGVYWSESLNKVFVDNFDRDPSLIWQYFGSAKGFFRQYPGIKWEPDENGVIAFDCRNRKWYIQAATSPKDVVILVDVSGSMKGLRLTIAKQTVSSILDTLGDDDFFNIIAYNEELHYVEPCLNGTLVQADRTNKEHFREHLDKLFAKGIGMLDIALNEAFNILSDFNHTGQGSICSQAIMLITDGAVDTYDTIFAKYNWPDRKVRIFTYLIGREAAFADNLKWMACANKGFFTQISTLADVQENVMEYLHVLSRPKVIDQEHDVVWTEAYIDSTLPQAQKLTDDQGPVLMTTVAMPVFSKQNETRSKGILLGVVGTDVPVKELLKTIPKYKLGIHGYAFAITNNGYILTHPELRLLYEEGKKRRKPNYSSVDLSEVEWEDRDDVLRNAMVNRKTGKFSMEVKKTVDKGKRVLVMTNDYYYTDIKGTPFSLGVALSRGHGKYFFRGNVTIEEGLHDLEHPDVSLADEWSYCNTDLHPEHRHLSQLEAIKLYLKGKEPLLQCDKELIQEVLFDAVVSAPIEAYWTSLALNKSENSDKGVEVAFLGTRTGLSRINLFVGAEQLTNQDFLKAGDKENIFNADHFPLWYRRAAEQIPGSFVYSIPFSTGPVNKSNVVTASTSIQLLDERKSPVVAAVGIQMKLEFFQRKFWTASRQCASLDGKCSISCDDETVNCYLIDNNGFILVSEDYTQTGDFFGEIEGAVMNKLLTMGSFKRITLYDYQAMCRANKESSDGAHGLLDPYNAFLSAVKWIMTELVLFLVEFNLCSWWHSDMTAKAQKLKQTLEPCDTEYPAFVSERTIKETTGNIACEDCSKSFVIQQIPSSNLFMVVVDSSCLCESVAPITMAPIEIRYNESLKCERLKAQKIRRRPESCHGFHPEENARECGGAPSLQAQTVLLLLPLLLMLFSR

In the case of “IGF-1: IGF-1, reported to stimulate α2δ-3 expression in cultured rat atrial myocytes”, the “effect on α2δ-3 expression” value [1] is given as “stimulates”.

In the case of `NCC1(CC(=O)O)CCCCC1` [gabapentin], the “binding to α2δ-2 subunit” value [2] is listed as “binds” and the “binding to α2δ-3 subunit” value [3] is listed as “not”.

B1: rat brain α2δ-2 subunit: α2δ-2 calcium channel subunit present in rat brain, SEQ. ID. NO:3, 1,150 amino acids, expressed from cDNA (protein, listed as Rattus norvegicus)
chain: MAVPARTCGASWPGPVRTARPWPGRGPRPCPDPRGPASGPARPLLLLLPPLLLLPLLTAPGASAYSFPQQHTMQHWARRLEQEIDGVMRIFGGVQQLREIYKDNRNLFDVQENEPQKLVEKVAGDIESLLDRKVQALKRLADAAENFQKAHRWQDNIKEEDIMYYDAKADAELDDPESEDMERGSKTSALRLDFIEEPNFKNKVNYSYTAVQIPTDIYKGSTVILNELNWTEALENVFIENRRQDPTLLWQVFGSATGVTRYYPATPWRAPKKIDLYDVRRRPWYIQGASSPKDMVIIVDVSGSVSGLTLKLMKTSVCEMLDTLSDDDYVNVASFNEKAQPVSCFTHLVQANVRNKKVFKEAVQGMVAKGTTGYKAGFEYAFDQLQNSNITRANCNKMIMMFTDGGEDRVQDVFEKYNWPNRTVRVFTFSVGQHNYDVTPLQWMACTNKGYYFEIPSIGAIRINTQEYLDVLGRPMVLAGKDAKQVQWTNVYEDALGLGLVVTGTLPVFNLTQDGPGEKKNQLILGVMGIDVALNDIKRLTPNYTLGANGYVFAIDLNGYVLLHPNLKPQTTNFREPVTLDFLDAELEDENKEEIRRSMIDEDKGHKQIRTLVKSLDERYIDEVIRNYTWVPIRSTNYSLGLVLPPYSTYYLQANLSDQILQVKYFEFLLPSSFESEGHVFIAPREYCKDLNASDNNTEFLKNFIELMEKVTPDSKQCNNFLLHNLILDTGITQQLVERVWRDQDLNTYSLLAVFAATDGAVTRVFPNKAAEDWTENPEPFNASFYRRSLDNRGYIFKPPHQDSLLRPLELENDTVGVLVSTAVELSLGRRTLRPAVVGVKLDLEAWAEKFKVLASNRTHQDQPQKQCGPSSHCEMDCEVNNEDLLCVLIDDGGFLVLSNQNHQWDQVGRFFSEVDANLMLALYNNSFYTRKESYDYQAACAPQPPGNLGAAPRGVFVPTIADFLNLAWWTSAAAWSLFQQLLYGLIYHSWFQADPAEAEGSPETRESSCVMKQTQYYFGSVNASYNAIIDCGNCSRLFHAQRLTNTNLLFVVAEKPLCSQCEVGRLLQKETHCPADGPEQCELVQRPRYRRGPHICFDYNATEDTSDCGRGTSFPPSLGVLVSLQLLLLLGLPPRPQPQIHSFAASRRL
With B1 the “mean current density (Ipeak/cell capacitance)” value ([4]; rat α1B+β1b coexpressed with rat brain α2δ-2 in HEK 293 cells, test potential +20 mV from holding −80 mV, 7 cells, mean±S.E.M, without α2δ-2: −7.2±2.3) was −30.0±4.1 pA/pF and the “increase of rat α1B+β1b current density” value ([4]; with versus without coexpressed α2δ-2, P=0.01) was roughly 4 fold.
